The values below come from patent US12642766B2, “EDB-FN as biomarker of cancer and/or brain disease and nanodrug delivery system targeting same” (KOREA UNIVERSITY RESEARCH AND BUSINESS FOUNDATION, priority 2020, dated 2026).

For series [1], the system named is EDB-FN. The series can be described thus: siRNA-mediated EDB-FN knockdown confirmed by qRT-PCR. The class given is cell-based, human. To be noted: U87MG cells; GAPDH internal control; control siRNA 1.00±0.08. The protocol: Cells were collected, and ribonucleic acid (RNA) was extracted with RiboEx using an RNA isolation kit (GeneAll, Seoul, Republic of Korea). Complementary DNA (cDNA) was synthesized by reverse transcription using a total of 1 μg of RNA from each sample. As a result, the following genes were estimated: EDB-FN gene (forward primer: 5′-[…]-3′; reverse primer: 5′-[…]-3′); glyceraldehyde 3-phosphate dehydrogenase) gene (forward primer: 5′-[…]-3′; reverse primer: 5′-[…]-3′. The polymerase chain reaction protocol was as follows: initial denaturation at 94° C. for 5 min; 30 repetitions of denaturation at 94° C. for 1 min, primer annealing at 55° C. for 1 min, and extension at 72° C. for 2 min; and final extension at 72° C. for 7 min 1 μg of cDNA was added to 4 μL of ultrapure water, 5 μL of SYBR Green real-time mixture (Takara, Tokyo, Japan) was added before performing a real-time polymerase chain reaction (Qiagen, Tokyo, Japan). The messenger RNA (mRNA) level of each gene was quantified using the 2^−ΔΔ^Ct method and normalized with the messenger RNA of glyceraldehyde 3-phosphate dehydrogenase.
EDB-FN-specific siRNA and scrambled control siRNA were purchased from Bioneer (Daejeon, Republic of Korea). The target sequence of EDB-FN siRNA used for RNA interference is as follows: sense; […], antisense; […]. […] Transfection efficacy was analyzed after 48 hours.

The target in series [2] is EDB-FN (Homo sapiens, UniProt P02751). To be noted: read-out: affinity of binding to EDB-FN; cited from earlier work.
Sequence of EDB-FN (Homo sapiens, UniProt P02751) (P02751 32-2477): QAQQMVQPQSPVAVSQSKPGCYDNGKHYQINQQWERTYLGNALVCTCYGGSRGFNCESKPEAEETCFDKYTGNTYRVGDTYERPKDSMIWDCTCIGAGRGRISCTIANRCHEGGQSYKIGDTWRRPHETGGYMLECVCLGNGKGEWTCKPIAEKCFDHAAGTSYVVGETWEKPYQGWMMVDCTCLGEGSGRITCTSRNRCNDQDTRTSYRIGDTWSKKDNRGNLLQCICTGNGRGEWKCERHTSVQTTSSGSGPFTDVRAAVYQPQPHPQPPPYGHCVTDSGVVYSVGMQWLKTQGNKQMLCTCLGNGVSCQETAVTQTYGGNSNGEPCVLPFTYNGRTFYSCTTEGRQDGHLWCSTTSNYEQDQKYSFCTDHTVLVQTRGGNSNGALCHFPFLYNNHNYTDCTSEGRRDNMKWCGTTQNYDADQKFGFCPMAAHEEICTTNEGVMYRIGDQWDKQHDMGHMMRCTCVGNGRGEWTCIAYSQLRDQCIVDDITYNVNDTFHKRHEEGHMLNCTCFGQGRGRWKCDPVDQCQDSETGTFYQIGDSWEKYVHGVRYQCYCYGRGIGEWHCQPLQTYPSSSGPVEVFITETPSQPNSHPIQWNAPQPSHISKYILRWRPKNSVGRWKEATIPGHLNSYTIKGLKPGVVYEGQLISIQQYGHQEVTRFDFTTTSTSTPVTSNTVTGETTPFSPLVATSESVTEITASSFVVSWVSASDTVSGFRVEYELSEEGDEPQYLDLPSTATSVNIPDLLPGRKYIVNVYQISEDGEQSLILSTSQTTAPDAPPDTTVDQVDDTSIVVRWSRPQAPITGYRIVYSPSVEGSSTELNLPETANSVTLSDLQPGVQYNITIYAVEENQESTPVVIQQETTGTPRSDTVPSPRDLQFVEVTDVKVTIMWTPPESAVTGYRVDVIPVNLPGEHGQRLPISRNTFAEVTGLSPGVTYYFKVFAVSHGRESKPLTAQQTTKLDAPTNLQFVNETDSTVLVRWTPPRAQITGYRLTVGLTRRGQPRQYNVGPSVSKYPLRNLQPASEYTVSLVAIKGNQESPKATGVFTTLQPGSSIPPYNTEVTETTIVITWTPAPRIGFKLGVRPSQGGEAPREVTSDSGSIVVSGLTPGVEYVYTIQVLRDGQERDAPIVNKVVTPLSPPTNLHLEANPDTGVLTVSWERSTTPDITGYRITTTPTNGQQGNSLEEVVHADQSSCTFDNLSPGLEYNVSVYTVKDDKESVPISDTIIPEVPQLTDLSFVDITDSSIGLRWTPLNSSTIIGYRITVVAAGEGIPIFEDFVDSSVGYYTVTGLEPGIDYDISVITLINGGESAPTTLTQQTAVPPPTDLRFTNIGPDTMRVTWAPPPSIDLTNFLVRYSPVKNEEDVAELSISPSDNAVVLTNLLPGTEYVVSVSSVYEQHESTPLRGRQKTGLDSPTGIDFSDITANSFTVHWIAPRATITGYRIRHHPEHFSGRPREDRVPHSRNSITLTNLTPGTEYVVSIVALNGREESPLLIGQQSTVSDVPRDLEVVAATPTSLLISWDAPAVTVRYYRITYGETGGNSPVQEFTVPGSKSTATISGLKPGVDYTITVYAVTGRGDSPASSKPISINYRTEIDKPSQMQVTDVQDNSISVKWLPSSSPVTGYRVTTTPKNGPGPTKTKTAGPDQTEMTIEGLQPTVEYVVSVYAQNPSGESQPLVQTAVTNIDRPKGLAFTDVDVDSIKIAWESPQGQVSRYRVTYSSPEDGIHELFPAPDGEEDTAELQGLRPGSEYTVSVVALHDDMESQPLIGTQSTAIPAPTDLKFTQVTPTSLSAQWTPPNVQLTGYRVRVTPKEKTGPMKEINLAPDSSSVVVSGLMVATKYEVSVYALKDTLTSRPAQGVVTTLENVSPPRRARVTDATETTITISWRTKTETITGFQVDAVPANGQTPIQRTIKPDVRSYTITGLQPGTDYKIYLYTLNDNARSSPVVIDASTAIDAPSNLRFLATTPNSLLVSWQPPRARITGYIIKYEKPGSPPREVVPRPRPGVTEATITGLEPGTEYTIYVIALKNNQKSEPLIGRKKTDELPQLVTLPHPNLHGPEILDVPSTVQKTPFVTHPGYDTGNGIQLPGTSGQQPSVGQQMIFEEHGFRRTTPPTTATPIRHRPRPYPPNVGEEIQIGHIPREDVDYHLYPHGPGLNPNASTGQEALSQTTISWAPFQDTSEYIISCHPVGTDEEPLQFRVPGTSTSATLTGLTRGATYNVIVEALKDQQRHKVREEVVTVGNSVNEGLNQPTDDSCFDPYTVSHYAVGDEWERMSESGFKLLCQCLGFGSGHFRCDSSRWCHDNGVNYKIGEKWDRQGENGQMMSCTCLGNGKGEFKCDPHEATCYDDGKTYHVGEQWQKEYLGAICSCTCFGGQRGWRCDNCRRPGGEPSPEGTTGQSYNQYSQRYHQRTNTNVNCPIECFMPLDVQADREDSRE

Ends that are not written are not given here. A value given as a limit tells only on which side of the number the result lay.

For the substance “EDB-FN siRNA: EDB-FN-specific siRNA; sense ACAGUCCCAGAUCAUGGAG, antisense CUCCAUGAUCUGGGACUGU (chemistry not given here)”, the “EDB-FN expression (qRT-PCR)” value in the series on EDB-FN [1] came out at 0.45±0.01.
In the case of “N′-CSSPIQGSWTWENGK(C)WTWGIIRLEQ-C′ (CSSPIQGSWTWENGK(Cys)WTWGIIRLEQ; listed as Homo sapiens) [APTEDB, EDB-FN-specific aptamer-like peptide (aptide)]”, the Kd with EDB-FN [2] was less than 0.1 µM.
